{"source": "paper PMC9065177", "about": "“Polymer chimera of stapled oncolytic peptide coupled with anti-PD-L1 peptide boosts immunotherapy of colorectal cancer” (Theranostics, 2022)", "key": {"red blood cells (RBC)": {"test_system": "red blood cells (RBC)", "test": "Hemolysis assay (hemoglobin release from erythrocytes)", "type": "cell-based, mice", "experimental": "The hemolytic activities of the peptides and peptide-polymer conjugates were evaluated by determining hemoglobin release from suspensions of mice blood. Fresh erythrocytes were obtained from the whole blood by centrifuging at 4 ℃ 1000 g for 30 min and washing with PBS 2 times. Then erythrocytes were diluted with PBS at the volume ration of 1:10. The 96-well plate was added to 100 μL erythrocyte suspension per well and incubated with peptides and conjugates solution with different concentrations for 1 h at 37 ℃, following centrifuged at 1000 rpm for 10 min. The supernatants were obtained and monitored by measuring absorbance at 570 nm (BioTek Cytation 5, USA) as previously described. 0.1% (v/v) Triton X-100 was used as a positive control and PBS was used as a negative control."}, "[1]": {"test": "Proteolytic stability in α-chymotrypsin solution", "type": "in vitro ADME", "conditions": "α-chymotrypsin solution, pH 7.4; after 1 h exposure to α-chymotrypsin; read-out: peptide remaining intact", "experimental": "(§1) The peptides were dissolved in H2O to a final concentration at 2 mM, respectively. α-Chymotrypsin was dissolved in PBS (0.5 ng/μL, containing 2 mM CaCl2, pH 7.4). Then, the peptide solutions (50 μL) were incubated with α-chymotrypsin solution (950 μL) at 37 ℃. 100 μL of digestion mixture was taken at the different time and then quenched with 20 μL of hydrochloric acid (1 M). The percent residual peptide was monitored by HPLC at 214 nm. Each experiment was performed in triplicate."}, "α-Chymotrypsin": {"target": "α-Chymotrypsin (Bos taurus, UniProt P00766)", "test": "Proteolytic stability in α-chymotrypsin solution", "type": "in vitro ADME", "experimental": "as §1"}}, "note": "Positions of bridges follow the written chain, without caps; N, C: chain ends. Non-standard residues stand in square brackets, D forms with d. Residues, ends and D or L forms follow the SMILES beside them. S5 = C=CCCC[C@](C)(N)C(=O)O"}
{"smiles": "CC[C@H](C)[C@H](NC(C)=O)C(=O)N[C@@H](CC(N)=O)C(=O)N[C@@H](CC(C)C)C(=O)N[C@@H](CCCCN)C(=O)N[C@@H](C)C(=O)N[C@@H](CC(C)C)C(=O)N[C@@H](C)C(=O)N[C@@H](C)C(=O)N[C@@]1(C)CCCC=CCCC[C@@](C)(C(=O)N[C@@H](CC(C)C)C(N)=O)NC(=O)[C@H](CCCCN)NC(=O)[C@H](CCCCN)NC(=O)[C@H](C)NC1=O", "note": "[MP9] (Ac-INLKALAA[S5]AKK[S5]L-NH2; staple 9-13)", "values": [{"measurement": "RBC hemolytic activity (in words)", "setting": "red blood cells (RBC)", "result": "lowest level of RBC hemolysis"}, {"measurement": "remaining at 1 h, 0.1 mM", "setting": "[1]", "result": "> 87", "unit": "%"}, {"measurement": "half-life", "setting": "α-Chymotrypsin; 0.5 ng/μL α-chymotrypsin, pH 7.4, 37 ℃, read-out: T1/2 in α-chymotrypsin solution (converted)", "result": 316, "unit": "min"}, {"measurement": "fold increase in half-life (T1/2) versus MP", "setting": "α-Chymotrypsin; α-chymotrypsin", "result": 12.55, "unit": "fold"}]}
